This is an account of results in patent publication US10005818B2, “Derivative peptide compounds and methods of use” (REALTA HOLDINGS, LLC, priority 2010, dated 2018).

Data set [1] relates to complement activation in factor B-depleted human sera. The format is biochemical. Here is the method: Peptides were diluted to 0.77 mM in factor B-depleted human sera (Complement Technologies, Inc.) and incubated for 1 hour at 37° C. These peptides were then diluted with GVBS^++ to equal 2.5/s serum, of which 0.25 ml was combined with 0.4 ml of GVBS^++ and 0.1 ml of sensitized sheep red blood cells (RBCs) and again incubated for 1 hour at 37° C. The procedure was stopped by the addition of 4.0 ml of GVBS^−−, centrifuged for 5 minutes at 1,620×g, and the absorbance of the supernatants was read at 412 nm in a spectrophotometer. The percent lysis of each sample was standardized to that of the serum only control.
The final concentration of peptide in factor B-depleted serum was 0.77 mM. Each peptide was evaluated in triplicate and the mean values are reported. […] In the hemolytic assay, soluble peptides are standardized to water and insoluble peptides standardized to DMSO.
Polar Assortant peptides were serially diluted in undiluted factor B-depleted human sera (Complement Technologies, Inc.) and incubated for 1 hour at 37° C. Water, GVBS^++ and DMSO were included as controls. These peptides were then diluted with GVBS^++ to equal 2.5/s serum, of which 0.25 ml was combined with 0.4 ml of GVBS^++ and 0.1 ml of sensitized sheep red blood cells (RBCs) and again incubated for 1 hour at 37° C. The procedure was stopped by the addition of 4.0 ml of GVBS^−−, centrifuged for 5 minutes at 1,620×g, and the absorbance of the supernatants was read at 412 nm in a spectrophotometer. The percent lysis of each sample was standardized to that of the serum only control.
The final concentration of peptide in factor B-depleted serum was 0.77 mM. […] In the hemolytic assay, soluble peptides were standardized to water and insoluble peptides standardized to DMSO.
The final concentration of peptide in factor B-depleted serum was 0.77 mM. […] In the hemolytic assay, soluble peptides are standardized to water and insoluble peptides standardized to DMSO.

Another data set in a line: Solubility in water. The format is physicochemical.
Where [2] appears, read: Table 7, PEGylated and sarcosine/alanine substitution peptides.

Square brackets hold non-standard residues; d marks the D form. Peptide text beside a SMILES is read from it. PEG24 = NCCOCCOCCOCCOCCOCCOCCOCCOCCOCCOCCOCCOCCOCCOCCOCCOCCOCCOCCOCCOCCOCCOCCOCCOCCC(=O)O

Take `CC[C@H](C)[C@H](N)C(=O)N[C@@H](C)C(=O)N[C@@H](CC(C)C)C(=O)N[C@H](C(=O)N[C@@H](CC(C)C)C(=O)N[C@@H](C)C(=O)N1CCC[C@H]1C(=O)N[C@H](C(=O)N[C@@H](CS)C(=O)N[C@@H](CS)C(=O)N[C@@H](CCC(N)=O)C(=O)N[C@@H](C)C(=O)N[C@@H](CCCNC(=N)N)C(=O)N[C@@H](C)C(=O)N[C@@H](C)C(=O)NCCOCCOCCOCCOCCOCCOCCOCCOCCOCCOCCOCCOCCOCCOCCOCCOCCOCCOCCOCCOCCOCCOCCOCCOCCC(=O)O)[C@@H](C)CC)[C@@H](C)CC` [E6AE12A-dPEG24] (H-IALILAPICCQARAA[PEG24]-OH; N-terminus assumed): in data set [1], the “Hemolysis (%)” value was 4.95%. Also, the Solubility in water entry in “Solubility in water” (setting [2]) was “Yes”.

Turning to `CC[C@H](C)[C@H](N)C(=O)N[C@@H](C)C(=O)N[C@@H](CC(C)C)C(=O)N[C@H](C(=O)N[C@@H](CC(C)C)C(=O)N[C@@H](CCC(=O)O)C(=O)N1CCC[C@H]1C(=O)N[C@H](C(=O)N[C@@H](CS)C(=O)N[C@@H](CS)C(=O)N[C@@H](CCC(N)=O)C(=O)N[C@@H](CCC(=O)O)C(=O)N(C)CC(=O)N[C@@H](C)C(=O)N[C@@H](C)C(=O)NCCOCCOCCOCCOCCOCCOCCOCCOCCOCCOCCOCCOCCOCCOCCOCCOCCOCCOCCOCCOCCOCCOCCOCCOCCC(=O)O)[C@@H](C)CC)[C@@H](C)CC` [PA-R13Sar-dPEG24], the “Hemolysis (%)” value in data set [1] is 4.26%. For the same molecule, in the data set “Solubility in water” (setting [2]), the Solubility in water result is “Yes”.

`CC[C@H](C)[C@H](N)C(=O)N[C@@H](C)C(=O)N[C@@H](CC(C)C)C(=O)N[C@H](C(=O)N[C@@H](CC(C)C)C(=O)N[C@@H](CCC(=O)O)C(=O)N1CCC[C@H]1C(=O)N[C@H](C(=O)N[C@@H](CS)C(=O)N[C@@H](CS)C(=O)N[C@@H](CCC(N)=O)C(=O)N[C@@H](CCC(=O)O)C(=O)N[C@@H](CCCNC(=N)N)C(=O)N(C)CC(=O)N[C@@H](C)C(=O)NCCOCCOCCOCCOCCOCCOCCOCCOCCOCCOCCOCCOCCOCCOCCOCCOCCOCCOCCOCCOCCOCCOCCOCCOCCC(=O)O)[C@@H](C)CC)[C@@H](C)CC` [PA-A14Sar-dPEG24]: the “Hemolysis (%)” value in data set [1] was determined as 3.68%. Moreover, in “Solubility in water” (setting [2]), the Solubility in water entry is “Yes”.

Consider `CC[C@H](C)[C@H](N)C(=O)N[C@@H](C)C(=O)N[C@@H](CC(C)C)C(=O)N[C@H](C(=O)N[C@@H](CC(C)C)C(=O)N[C@@H](CCC(=O)O)C(=O)N1CCC[C@H]1C(=O)N[C@H](C(=O)N[C@@H](CS)C(=O)N[C@@H](CS)C(=O)N[C@@H](CCC(N)=O)C(=O)N[C@@H](CCC(=O)O)C(=O)N[C@@H](CCCNC(=N)N)C(=O)N[C@@H](C)C(=O)N[C@@H](C)C(=O)NCCOCCOCCOCCOCCOCCOCCOCCOCCOCCOCCOCCOCCC(=O)O)[C@@H](C)CC)[C@@H](C)CC` [PA-dPEG12], for which the Solubility in water entry in the data set “Solubility in water” (Table 6, PEGylated PA peptides) was “Yes”.

For the molecule `CC[C@H](C)[C@H](N)C(=O)N[C@@H](C)C(=O)N[C@@H](CC(C)C)C(=O)N[C@H](C(=O)N[C@@H](CC(C)C)C(=O)N[C@@H](CCC(=O)O)C(=O)N1CCC[C@H]1C(=O)N[C@H](C(=O)N[C@@H](CS)C(=O)N[C@@H](CS)C(=O)N[C@@H](CCC(N)=O)C(=O)N[C@@H](CCC(=O)O)C(=O)N[C@@H](CCCNC(=N)N)C(=O)N[C@@H](C)C(=O)N[C@@H](C)C(=O)NCCOCCOCCOCCOCCOCCOCCOCCOCCOCCOCCOCCOCCOCCOCCOCCOCCOCCOCCOCCOCCC(=O)O)[C@@H](C)CC)[C@@H](C)CC` [PA-dPEG20], in the data set “Solubility in water” (Table 6, PEGylated PA peptides), the Solubility in water result is “Yes”.

Take `CC[C@H](C)[C@H](N)C(=O)N[C@@H](C)C(=O)N[C@@H](CC(C)C)C(=O)N[C@H](C(=O)N[C@@H](CC(C)C)C(=O)N[C@@H](CCC(=O)O)C(=O)N1CCC[C@H]1C(=O)N[C@H](C(=O)N[C@@H](CS)C(=O)N[C@@H](CS)C(=O)N[C@@H](CCC(N)=O)C(=O)N[C@@H](CCC(=O)O)C(=O)N[C@@H](CCCNC(=N)N)C(=O)N[C@@H](C)C(=O)N[C@@H](C)C(=O)NCCOCCOCCC(=O)O)[C@@H](C)CC)[C@@H](C)CC` [PA-dPEG02]: the Solubility in water entry in the data set “Solubility in water” (Table 6, PEGylated PA peptides) is recorded as “Yes”.

For the molecule `CC[C@H](C)[C@H](N)C(=O)N[C@@H](C)C(=O)N[C@@H](CC(C)C)C(=O)N[C@H](C(=O)N[C@@H](CC(C)C)C(=O)N[C@@H](CCC(=O)O)C(=O)N1CCC[C@H]1C(=O)N[C@H](C(=O)N[C@@H](CS)C(=O)N[C@@H](CS)C(=O)N[C@@H](CCC(N)=O)C(=O)N[C@@H](CCC(=O)O)C(=O)N[C@@H](CCCNC(=N)N)C(=O)N[C@@H](C)C(=O)N[C@@H](C)C(=O)NCCOCCOCCOCCC(=O)O)[C@@H](C)CC)[C@@H](C)CC` [PA-dPEG03], the Solubility in water entry in “Solubility in water” (Table 6, PEGylated PA peptides) is on record as “Yes”.

Take `CC[C@H](C)[C@H](N)C(=O)N[C@@H](C)C(=O)N[C@@H](CC(C)C)C(=O)N[C@H](C(=O)N[C@@H](CC(C)C)C(=O)N[C@@H](CCC(=O)O)C(=O)N1CCC[C@H]1C(=O)N[C@H](C(=O)N[C@@H](CS)C(=O)N[C@@H](CS)C(=O)N[C@@H](CCC(N)=O)C(=O)N[C@@H](CCC(=O)O)C(=O)N[C@@H](CCCNC(=N)N)C(=O)N[C@@H](C)C(=O)N[C@@H](C)C(=O)NCCOCCOCCOCCOCCOCCOCCC(=O)O)[C@@H](C)CC)[C@@H](C)CC` [PA-dPEG06]: the Solubility in water result in “Solubility in water” (Table 6, PEGylated PA peptides) is reported as “No”.

`CC[C@H](C)[C@H](N)C(=O)N[C@@H](C)C(=O)N[C@@H](CC(C)C)C(=O)N[C@H](C(=O)N[C@@H](CC(C)C)C(=O)N[C@@H](CCC(=O)O)C(=O)N1CCC[C@H]1C(=O)N[C@H](C(=O)N[C@@H](CS)C(=O)N[C@@H](CS)C(=O)N[C@@H](CCC(N)=O)C(=O)N[C@@H](CCC(=O)O)C(=O)N[C@@H](CCCNC(=N)N)C(=O)N[C@@H](C)C(=O)N[C@@H](C)C(=O)O)[C@@H](C)CC)[C@@H](C)CC` [PA]: in “Solubility in water”, the “solubility in water / aqueous solutions” value is recorded as “low solubility”. Also, in “Solubility in water” (Table 5, sarcosine substitution peptides), the Solubility in water entry was “No”.

On to `CC[C@H](C)[C@H](N)C(=O)N[C@@H](C)C(=O)N[C@@H](CC(C)C)C(=O)N[C@H](C(=O)N[C@@H](CC(C)C)C(=O)N[C@@H](CCC(=O)O)C(=O)N1CCC[C@H]1C(=O)N[C@H](C(=O)N[C@@H](CS)C(=O)N[C@@H](CS)C(=O)N[C@@H](CCC(N)=O)C(=O)N[C@@H](CCC(=O)O)C(=O)N[C@@H](CCCNC(=N)N)C(=O)N[C@@H](C)C(=O)N[C@@H](C)C(=O)NCCOCCOCCOCCOCCC(=O)O)[C@@H](C)CC)[C@@H](C)CC` [PA-dPEG04], for which, in “Solubility in water” (Table 6, PEGylated PA peptides), the Solubility in water result was “Yes”.

With `CC[C@H](C)[C@H](N)C(=O)N[C@@H](C)C(=O)N[C@@H](CC(C)C)C(=O)N[C@H](C(=O)N[C@@H](CC(C)C)C(=O)N[C@@H](CCC(=O)O)C(=O)N1CCC[C@H]1C(=O)N[C@H](C(=O)N[C@@H](CS)C(=O)N[C@@H](CS)C(=O)N[C@@H](CCC(N)=O)C(=O)N[C@@H](CCC(=O)O)C(=O)N[C@@H](CCCNC(=N)N)C(=O)N[C@@H](C)C(=O)N[C@@H](C)C(=O)NCCOCCOCCOCCOCCOCCOCCOCCOCCC(=O)O)[C@@H](C)CC)[C@@H](C)CC` [PA-dPEG08], in the data set “Solubility in water” (Table 6, PEGylated PA peptides), the Solubility in water entry was “Yes”.

For `CC[C@H](C)[C@H](N)C(=O)N[C@@H](C)C(=O)N[C@@H](CC(C)C)C(=O)N[C@H](C(=O)N[C@@H](CC(C)C)C(=O)N[C@@H](CCC(=O)O)C(=O)N1CCC[C@H]1C(=O)N[C@H](C(=O)N[C@@H](CS)C(=O)N[C@@H](CS)C(=O)N[C@@H](CCC(N)=O)C(=O)N[C@@H](CCC(=O)O)C(=O)N[C@@H](CCCNC(=N)N)C(=O)N[C@@H](C)C(=O)N[C@@H](C)C(=O)NCCOCCOCCOCCOCCOCCOCCOCCOCCOCCOCCOCCOCCOCCOCCOCCOCCC(=O)O)[C@@H](C)CC)[C@@H](C)CC` [PA-dPEG16], the Solubility in water result in the data set “Solubility in water” (Table 6, PEGylated PA peptides) is reported as “Yes”.
